Where two headings read alike, the source gives them in different places.
Legend:
PDE type V = target: T1, PDE type V (Canis lupus familiaris, UniProt O77746); test: PDE inhibiting activity, type V; assay type: biochemical, dog; conditions: PDE purified from canine aorta, 1 µM substrate cGMP or cAMP
T1 construct: By elution with a sodium chloride gradient (0 - 0.4 M), PDE types V and III were separated from the other isozymes; from tissue; host or cells: canine aorta
Description: The canine aorta was minced and homogenized with a Waring Blender and a glass homogenizer in six volumes of a Tris-HCl buffer solution (pH 7.5, 20 mM) containing 2 mM magnesium acetate, 5 mM ethylenediaminetetraacetic acid (EDTA), 100 µg/mL of phenylmethylsulforyl fluoride and 15 mM 2-mercaptoethanol (2-ME), and centrifuged at 1200 x g for 30 min. […] By elution with a sodium chloride gradient (0 - 0.4 M), PDE types V and III were separated from the other isozymes. […] The resulting precipitated fraction was similarly applied to the DEAE-trisacryl column and eluted by a sodium chloride gradient (0 - 0.4 M) so as to separate PDE type I.
Specifically, a purified PDE sample was added to 50 mM Tris-HCl buffer solution (pH 7.5) containing 1 µM of substrate cGMP or cAMP (containing tritium-labelled cGMP or cAMP), 1 mM EGTA and 2 mM magnesium acetate. For PDE activity measurement, enzymatically produced 5' GMP or 5' AMP was further hydrolyzed into guanosine or adenosine with snake venom and separated from the substrate by means of an ion-exchange resin (Dowex 1-X2), followed by measuring with a scintillation counter. […] The final concentration of DMSO was adjusted to be no more than 2% in consideration of the effect on PDE activity.

PDE type I = test: PDE inhibiting activity, type I; assay type: biochemical, dog; conditions: PDE purified from canine aorta; 1 µM substrate cGMP or cAMP; read-out: Inhibition Activity IC50 (µM) Type I
Description: On the basis of the method of Lugnier et al. (Biochem. Pharmacol., 35, 1743-1751, 1986), PDE was purified from the aorta in a dog. The canine aorta was minced and homogenized with a Waring Blender and a glass homogenizer in six volumes of a Tris-HCl buffer solution (pH 7.5, 20 mM) containing 2 mM magnesium acetate, 5 mM ethylenediaminetetraacetic acid (EDTA), 100 µg/mL of phenylmethylsulforyl fluoride and 15 mM 2-mercaptoethanol (2-ME), and centrifuged at 1200 x g for 30 min. The supernatant was separated and salted out with ammonium sulfate which was added to 45% saturation. The resulting precipitated fraction was resuspended in a Tris-HCl buffer solution (pH 7.5, 20 mM) containing 2 mM magnesium acetate and 1 mM 2-ME, dialyzed overnight and applied to a DEAE-trisacryl column (DEAE […] M:IBF). By elution with a sodium chloride gradient (0 - 0.4 M), PDE types V and III were separated from the other isozymes. The supernatant fraction of 45% saturated ammonium sulfate was further mixed with ammonium sulfate to 65% saturation and salted out. The resulting precipitated fraction was similarly applied to the DEAE-trisacryl column and eluted by a sodium chloride gradient (0 - 0.4 M) so as to separate PDE type I.
The thus obtained PDE types V, III and I were measured for their activity in accordance with the method of Thompson et al. (Adv. Cyclic Nucleotide Res., 10, 69-72, 1979) and the method of Wells et al. (Biochim. Biophys. Acta, 384, 430-443, 1975). Specifically, a purified PDE sample was added to 50 mM Tris-HCl buffer solution (pH 7.5) containing 1 µM of substrate cGMP or cAMP (containing tritium-labelled cGMP or cAMP), 1 mM EGTA and 2 mM magnesium acetate. For PDE activity measurement, enzymatically produced 5' GMP or 5' AMP was further hydrolyzed into guanosine or adenosine with snake venom and separated from the substrate by means of an ion-exchange resin (Dowex 1-X2), followed by measuring with a scintillation counter. The activity of each test compound was determined as a percentage of the PDE activity measured when it was added as a dimethyl sulfoxide solution (DMSO) and its IC50 (50% inhibition concentration) was calculated by the probit method. The final concentration of DMSO was adjusted to be no more than 2% in consideration of the effect on PDE activity.

[1] = system: smooth muscle of cavernous body of rabbits; test: Enhancement of nitroprusside relaxation of isolated cavernous body strips; conditions: relaxation by 1 µM nitroprusside compared with solvent
Description: Rabbits were anesthetized by an intravenous injection of 40-50 mg/kg of pentobarbital (Nembutal™ manufactured by Dainippon Pharmaceutical Co., Ltd.), blood was drained out by incision of carotid artery, and penis was taken out and placed in an ice-cooled nutrient solution (Krebs bicarbonate containing 118 mM of NaCl, 4.7 mM of KCl, 1.2 mM of KH2PO4, 1.2 mM of MgSO4.7H2O, 1.5 mM of CaCl2, 25 mM of NaHCO3, 11 mM of glucose and 0.023 mM of EDTA·2Na). After the tissues around the albuginea were incised in a nutrient solution, the albuginea was incised to prepare cavernous body of the penis. The cavernous body was cut and both ends of the strips of about 1 cm length were ligated by nylon yarn. One end was fixed to a supporting rod, transferred into a 20-ml Magnus tube which was filled with the nutrient solution, passed with a mixed gas of 95% oxygen and 5% carbon dioxide and kept at 37 °C while another end of the strip was connected to an isometric transducer (TB-611T; NIHON KOHDEN CORP.) placed on the upper area and a stress load of about 2 g was applied. After stabilization of 60 minutes or longer, strips were contracted with 10 µM of phenylephrine in the presence of 5 µM of guanetidine and 1 µM of atropine and, after stabilization, 1 µM or 100 µM of nitroprusside was added whereby relaxation by nitroprusside was ascertained. […] Rate of relaxation by 1 µM of nitroprusside after addition of the sample was compared with that after addition of the solvent and the increasing rate was calculated. […]

[2] = Absorption upon intranasal administration to rats; assay type: in vivo, Male wistar rats; conditions: for MRT as compared with oral administration / Tmax as compared with oral administration / bioavailability: intranasal administration; for MAT / MRT / Tmax: intranasal; for bioavailability / MRT / Tmax: male, Wistar, rat, inhaled or intranasal
Text: Male wistar rats (eight weeks age) were anesthetized by intraperitoneal injection of 1 g/kg of urethane. Neck was incised to expose a trachea and polyethylene tube (SP 120; Natsume Seisakusho) was inserted into the trachea. Then a part of esophagus was opened by cutting and a polyethylene tube of the same diameter was inserted to the direction of choana and the end was tightly sealed with absorbent cotton and adhesive. In order to prevent a leakage of drug solution from nasopalatine canal, said canal of upper chin opening to mouth was closed by synthetic adhesive. The drug was dissolved in a 0.1% tartaric acid solution and the drug of 500 µl/kg was administered by a micropipette from outer nasal cavity followed by closing both outer nasal cavities immediately. As a control, the rat to which the drug was intravenously injected was prepared. After the injection; aliquot of blood was collected from time to time from jugular vein using a heparin-treated syringe and centrifuged to give plasma. Certain amount of the resulting plasma was collected, extracted with tert-butyl-methyl-ether three times, and the organic phase was evaporated to dryness and dissolved in the initial solvent for HPLC. A certain amount thereof was injected into an HPLC connected to an ultraviolet absorption detector and the drug concentration in the plasma was measured by reversed phase column. Time for arriving the maximum blood concentration (Tmax), mean residence time (MRT) and mean absorption time (MAT) were calculated from the measured value.

[3] = Absorption by percutaneous administration in rats; assay type: in vivo; conditions: hairless rats, Dose 10 mg/kg; for MRT / Tmax: rat
Description: Abdominal skin of hairless rats (eight weeks age, Nippon SLC) was wiped with 70% ethanol, and 0.25 ml/kg of a drug solution (40 mg/ml DMSO) was applied to an area of 8 cm^2 (2 x 4 cm) and the applied area was coated with a film coating agent (Permiaid S, Nitto Medical) and fixed with an adhesive bandage (Elastopore, Nichiban). After application of the drug solution, aliquot of blood was collected from time to time using a heparin-treated syringe from jugular vein and centrifuged to give plasma. Aliquot plasma was extracted with tert-butyl-methyl-ether three times, and the organic phase was evaporated to dryness and dissolved in the initial solvent for HPLC. A certain amount thereof was injected into a HPLC connected to an ultraviolet absorption detector and the drug concentration in the plasma was measured by means of a reversed phase column. Pharmacokinetic parameters were calculated from the measured data by the same manner as in Experiment 3.

male wistar rats = test: Toxicity test, oral administration for four days; conditions: 100 mg/kg/day orally for four days

CCCc1nn(C)c2c(=O)[nH]c(-c3cc(S(=O)(=O)N4CCN(C)CC4)ccc3OCC)nc12.O=C(O)CC(O)(CC(=O)O)C(=O)O [sildenafil, 5-[2-ethoxy-5-(4-methylpiperazin-1-ylsulfonyl)phenyl]-1-methyl-3-propyl-6,7-dihydro-1H-pyrazolo[4,3-d]pyrimidin-7-one-citrate, reference compound]
IC50 (PDE type V; Inhibition Activity IC50 (µM) Type V): 0.0018 µM
IC50 (PDE type I): 0.46 µM
Enhancing Rate of Relaxation (%) ([1]; Final Added Amount 1000 nM): 189.1%
MRT as compared with oral administration [2]: same
Tmax as compared with oral administration [2]: same or shortened
MAT ([2]; Dose 1.0 mg/kg): 1 to 2 h
bioavailability ([2]; in vivo): ~100%
MRT ([2]; in vivo, Dose 1.0 mg/kg): 2 to 3 h
Tmax ([2]; in vivo, Dose 1.0 mg/kg): 0.2 to 0.5 h
MAT [3]: 14.3 h
MRT ([3]; in vivo): 14.7 h
Tmax ([3]; in vivo): 1 h

CS(=O)(=O)O.O=c1c(Cc2cccnc2)cn2c3cc(Br)ccc3c3cc(OCCCO)cc1c32 [Example 52, 9-bromo-2-(3-hydroxypropyloxy)-5-(3-pyridylmethyl)-4H-pyrido[3,2,1-jk]carbazol-4-one methanesulfonate]
IC50 (PDE type V; read-out: Inhibition Activity IC50 (µM) Type V): 0.0057 µM
Enhancing Rate of Relaxation (%) ([1]; Final Added Amount 100 nM): 90.8%
Enhancing Rate of Relaxation (%) ([1]; Final Added Amount 1000 nM): 190.9%
MRT as compared with oral administration [2]: same
Tmax as compared with oral administration [2]: same or shortened
MAT ([2]; Dose 0.3 mg/kg): 1 to 2 h
bioavailability ([2]; plasma): ~100%
MRT ([2]; plasma, Dose 0.3 mg/kg): 2 to 3 h
Tmax ([2]; plasma, Dose 0.3 mg/kg): 0.2 to 0.5 h
MAT [3]: 7.9 h
MRT ([3]; plasma, topical): 8.5 h
Tmax ([3]; plasma, topical): 1 h
abnormal change in body weight and general symptoms (male wistar rats): no abnormal change
dead case (male wistar rats; until the next morning of the completion of the administration): no dead case

Reference: patent EP0992240A1, “THERAPEUTIC AGENT FOR ERECTION FAILURE” (MOCHIDA PHARMACEUTICAL CO., LTD., priority 1997, dated 1998)
